These results are taken from ChEMBL document CHEMBL4507278 (2021).

In data set [1] the test system is Epidermal growth factor receptor (Homo sapiens), P00533 [UNDEFINED MUTATION]. Particulars: Compound concentration 1000.0 nM; call rule not given here.
The target in data set [2] is Ephrin type-A receptor 7 (Homo sapiens) (UniProt Q15375). The note with it: Compound concentration 1000.0 nM.
In data set [3] the target is Serine/threonine-protein kinase/endoribonuclease IRE1 (Homo sapiens) (UniProt O75460). Particulars: Compound concentration 1000.0 nM.
The target in data set [4] is Dual specificity mitogen-activated protein kinase kinase 4 (Homo sapiens) (UniProt P45985). Particulars: Compound concentration 1000.0 nM.
Data set [5] has as its target Myosin light chain kinase (Homo sapiens) (UniProt Q32MK0). Particulars: Compound concentration 1000.0 nM.
For data set [6], the target named is Serine/threonine-protein kinase ULK2 (Homo sapiens) (UniProt Q8IYT8). Particulars: Compound concentration 1000.0 nM.
For data set [7], the target named is Adenosine receptor A2a (Homo sapiens) (UniProt P29274). The data set can be described thus: A2A/HU Eurofins-Panlabs selectivity data (BI). The note with it: Compound concentration 10.0 uM.
The target of data set [8] is T1, Alpha-1D adrenergic receptor (Homo sapiens) (UniProt P25100).
T1 sequence (whole entry): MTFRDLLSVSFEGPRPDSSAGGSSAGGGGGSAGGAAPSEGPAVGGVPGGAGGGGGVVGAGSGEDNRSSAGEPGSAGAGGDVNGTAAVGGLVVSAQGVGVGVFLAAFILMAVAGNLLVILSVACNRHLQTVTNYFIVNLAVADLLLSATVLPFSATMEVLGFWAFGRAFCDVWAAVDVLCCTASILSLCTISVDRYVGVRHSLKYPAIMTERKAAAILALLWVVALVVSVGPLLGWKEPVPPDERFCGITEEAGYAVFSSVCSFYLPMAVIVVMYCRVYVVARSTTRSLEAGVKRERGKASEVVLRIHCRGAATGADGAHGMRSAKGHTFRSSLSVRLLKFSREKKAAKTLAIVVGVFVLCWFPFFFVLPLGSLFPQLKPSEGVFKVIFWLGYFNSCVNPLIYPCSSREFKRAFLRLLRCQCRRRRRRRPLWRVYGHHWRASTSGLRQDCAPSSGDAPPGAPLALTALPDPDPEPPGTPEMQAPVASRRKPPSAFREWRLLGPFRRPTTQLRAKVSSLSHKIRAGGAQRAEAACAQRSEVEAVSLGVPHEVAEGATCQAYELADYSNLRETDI
The data set can be described thus: ALPHA1D/H Eurofins-Panlabs selectivity data (BI). The note with it: Compound concentration 10.0 uM.

Data set [9] has as its target Beta-1 adrenergic receptor (Homo sapiens, UniProt P08588). The data set can be described thus: BETA1/HU Eurofins-Panlabs selectivity data (BI). Particulars: Compound concentration 10.0 uM.
Data set [10] deals with Voltage-dependent L-type calcium channel subunit alpha-1C (DHP site) (Rattus norvegicus, UniProt P22002). The data set can be described thus: CA+/DHPSI/RA Eurofins-Panlabs selectivity data (BI). Particulars: compound concentration 10 uM, read-out: % Ctrl.
Data set [11] has as its target Cannabinoid receptor 1 (Homo sapiens) (UniProt P21554). The data set can be described thus: CB1 Eurofins-Panlabs selectivity data (BI). Particulars: Compound concentration 10.0 uM.
For data set [12], the target named is D(3) dopamine receptor (Homo sapiens) (UniProt P35462). Put plainly: D3/HU Eurofins-Panlabs selectivity data (BI). The note with it: Compound concentration 10.0 uM.
For data set [13], the target named is Delta-type opioid receptor (Homo sapiens) (UniProt P41143). Put plainly: DELTA/HU Eurofins-Panlabs selectivity data (BI). The note with it: Compound concentration 10.0 uM.
In data set [14] the target is Endothelin receptor type B (Homo sapiens) (UniProt P24530). Put plainly: ETB/HUM Eurofins-Panlabs selectivity data (BI). The note with it: Compound concentration 10.0 uM.
The target in data set [15] is Histamine H1 receptor (Homo sapiens) (UniProt P35367). The data set can be described thus: H1/H Eurofins-Panlabs selectivity data (BI). The note with it: Compound concentration 10.0 uM.
In another data set the target is hERG (KCNH2) (Homo sapiens, UniProt Q12809). Put plainly: K+/HERG Eurofins-Panlabs selectivity data (BI). Particulars: compound concentration 10 uM, read-out: % Ctrl.
The target of data set [16] is Glutamate receptor ionotropic, kainate 1 (Rattus norvegicus) (UniProt P22756). The data set can be described thus: KAINATE/R Eurofins-Panlabs selectivity data (BI). Particulars: Compound concentration 10.0 uM.
Data set [17] concerns the target Muscarinic acetylcholine receptor M1 (Homo sapiens) (UniProt P11229). The data set can be described thus: M1/HU Eurofins-Panlabs selectivity data (BI). Particulars: Compound concentration 10.0 uM.
The target in data set [18] is Muscarinic acetylcholine receptor M3 (Homo sapiens) (UniProt P20309). Put plainly: M3/HU Eurofins-Panlabs selectivity data (BI). Particulars: Compound concentration 10.0 uM.
The target in data set [19] is Sodium-dependent noradrenaline transporter (Homo sapiens) (UniProt P23975). The data set can be described thus: NETRANS/H Eurofins-Panlabs selectivity data (BI). Particulars: Compound concentration 10.0 uM.
Data set [20] has as its target Glutamate NMDA receptor (Rattus norvegicus) (UniProt P35439+Q00959+Q00960+Q00961+Q62645+Q8VHN2+Q9R1M7). Put plainly: NMDAAGSI/RA Eurofins-Panlabs selectivity data (BI). Format: protein-complex assay. Particulars: filed as agonist, Compound concentration 10.0 uM.
Data set [21] deals with Glutamate receptor ionotropic, NMDA 1 (Rattus norvegicus) (UniProt P35439). The data set can be described thus: NMDAGLSI/RA Eurofins-Panlabs selectivity data (BI). The note with it: Compound concentration 10.0 uM.
Data set [22] concerns the target P2X purinoceptor (Oryctolagus cuniculus) (UniProt G1U3D6). Put plainly: P2X/RB Eurofins-Panlabs selectivity data (BI). The note with it: Compound concentration 10.0 uM.
For data set [23], the target named is P2Y purinoceptor 1 (Rattus norvegicus) (UniProt P49651). Put plainly: P2Y/RAT Eurofins-Panlabs selectivity data (BI). Particulars: Compound concentration 10.0 uM.
In data set [24] the target is Sigma non-opioid intracellular receptor 1 (Homo sapiens) (UniProt Q99720). Put plainly: SIGMA1/HU Eurofins-Panlabs selectivity data (BI). Particulars: Compound concentration 10.0 uM.

Delta-type opioid receptor (Homo sapiens), sequence (P41143 whole entry): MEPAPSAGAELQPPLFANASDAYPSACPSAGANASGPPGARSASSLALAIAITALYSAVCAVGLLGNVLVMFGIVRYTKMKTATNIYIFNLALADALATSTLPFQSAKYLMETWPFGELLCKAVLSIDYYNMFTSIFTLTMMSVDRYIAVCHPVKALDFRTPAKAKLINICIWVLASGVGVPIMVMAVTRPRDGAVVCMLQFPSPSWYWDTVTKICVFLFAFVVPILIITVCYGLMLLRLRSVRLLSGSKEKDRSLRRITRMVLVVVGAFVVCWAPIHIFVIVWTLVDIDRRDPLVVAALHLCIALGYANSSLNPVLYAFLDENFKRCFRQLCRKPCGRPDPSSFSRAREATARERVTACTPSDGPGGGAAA
Sodium-dependent noradrenaline transporter (Homo sapiens), sequence (P23975 whole entry): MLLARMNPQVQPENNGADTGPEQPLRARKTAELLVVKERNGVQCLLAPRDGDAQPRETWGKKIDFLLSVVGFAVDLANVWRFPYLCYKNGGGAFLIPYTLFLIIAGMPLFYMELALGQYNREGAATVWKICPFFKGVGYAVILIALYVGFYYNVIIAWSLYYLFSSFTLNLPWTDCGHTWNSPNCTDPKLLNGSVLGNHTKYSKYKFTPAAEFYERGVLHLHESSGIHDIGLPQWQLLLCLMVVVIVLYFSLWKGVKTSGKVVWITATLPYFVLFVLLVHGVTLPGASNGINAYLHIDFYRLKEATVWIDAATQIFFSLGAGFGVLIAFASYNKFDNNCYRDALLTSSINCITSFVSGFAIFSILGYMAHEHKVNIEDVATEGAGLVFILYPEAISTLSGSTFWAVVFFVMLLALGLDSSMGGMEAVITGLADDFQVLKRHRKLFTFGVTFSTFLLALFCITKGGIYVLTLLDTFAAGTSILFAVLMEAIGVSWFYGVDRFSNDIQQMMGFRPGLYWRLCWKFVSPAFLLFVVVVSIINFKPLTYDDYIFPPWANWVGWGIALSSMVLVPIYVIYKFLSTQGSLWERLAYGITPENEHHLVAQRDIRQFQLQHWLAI
Glutamate receptor ionotropic, kainate 1 (Rattus norvegicus), sequence (P22756 whole entry): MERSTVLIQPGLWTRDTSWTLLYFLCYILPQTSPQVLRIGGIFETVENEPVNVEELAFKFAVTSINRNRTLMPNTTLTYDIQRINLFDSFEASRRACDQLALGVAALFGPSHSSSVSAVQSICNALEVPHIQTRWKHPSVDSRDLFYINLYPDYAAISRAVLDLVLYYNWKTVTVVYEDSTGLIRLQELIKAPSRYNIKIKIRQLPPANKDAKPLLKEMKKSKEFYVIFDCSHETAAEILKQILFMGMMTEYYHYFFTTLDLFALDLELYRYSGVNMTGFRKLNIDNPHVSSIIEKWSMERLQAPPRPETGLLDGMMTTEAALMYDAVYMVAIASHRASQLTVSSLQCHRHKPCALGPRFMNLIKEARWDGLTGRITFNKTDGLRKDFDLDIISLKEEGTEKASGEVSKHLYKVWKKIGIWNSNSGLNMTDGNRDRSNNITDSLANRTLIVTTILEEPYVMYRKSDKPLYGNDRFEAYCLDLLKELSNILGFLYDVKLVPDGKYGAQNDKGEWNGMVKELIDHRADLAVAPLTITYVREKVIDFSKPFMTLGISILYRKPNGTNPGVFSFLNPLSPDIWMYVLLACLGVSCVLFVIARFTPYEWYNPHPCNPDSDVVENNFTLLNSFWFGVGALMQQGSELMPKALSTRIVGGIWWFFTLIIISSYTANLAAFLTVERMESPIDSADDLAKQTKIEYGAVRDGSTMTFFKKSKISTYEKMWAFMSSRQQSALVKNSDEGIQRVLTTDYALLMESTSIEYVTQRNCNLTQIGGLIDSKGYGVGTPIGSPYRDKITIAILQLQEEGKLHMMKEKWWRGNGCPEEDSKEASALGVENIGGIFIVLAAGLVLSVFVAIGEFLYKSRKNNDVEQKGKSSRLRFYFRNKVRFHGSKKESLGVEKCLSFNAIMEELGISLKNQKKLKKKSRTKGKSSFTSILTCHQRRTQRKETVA
hERG (KCNH2), sequence (Q12809 whole entry): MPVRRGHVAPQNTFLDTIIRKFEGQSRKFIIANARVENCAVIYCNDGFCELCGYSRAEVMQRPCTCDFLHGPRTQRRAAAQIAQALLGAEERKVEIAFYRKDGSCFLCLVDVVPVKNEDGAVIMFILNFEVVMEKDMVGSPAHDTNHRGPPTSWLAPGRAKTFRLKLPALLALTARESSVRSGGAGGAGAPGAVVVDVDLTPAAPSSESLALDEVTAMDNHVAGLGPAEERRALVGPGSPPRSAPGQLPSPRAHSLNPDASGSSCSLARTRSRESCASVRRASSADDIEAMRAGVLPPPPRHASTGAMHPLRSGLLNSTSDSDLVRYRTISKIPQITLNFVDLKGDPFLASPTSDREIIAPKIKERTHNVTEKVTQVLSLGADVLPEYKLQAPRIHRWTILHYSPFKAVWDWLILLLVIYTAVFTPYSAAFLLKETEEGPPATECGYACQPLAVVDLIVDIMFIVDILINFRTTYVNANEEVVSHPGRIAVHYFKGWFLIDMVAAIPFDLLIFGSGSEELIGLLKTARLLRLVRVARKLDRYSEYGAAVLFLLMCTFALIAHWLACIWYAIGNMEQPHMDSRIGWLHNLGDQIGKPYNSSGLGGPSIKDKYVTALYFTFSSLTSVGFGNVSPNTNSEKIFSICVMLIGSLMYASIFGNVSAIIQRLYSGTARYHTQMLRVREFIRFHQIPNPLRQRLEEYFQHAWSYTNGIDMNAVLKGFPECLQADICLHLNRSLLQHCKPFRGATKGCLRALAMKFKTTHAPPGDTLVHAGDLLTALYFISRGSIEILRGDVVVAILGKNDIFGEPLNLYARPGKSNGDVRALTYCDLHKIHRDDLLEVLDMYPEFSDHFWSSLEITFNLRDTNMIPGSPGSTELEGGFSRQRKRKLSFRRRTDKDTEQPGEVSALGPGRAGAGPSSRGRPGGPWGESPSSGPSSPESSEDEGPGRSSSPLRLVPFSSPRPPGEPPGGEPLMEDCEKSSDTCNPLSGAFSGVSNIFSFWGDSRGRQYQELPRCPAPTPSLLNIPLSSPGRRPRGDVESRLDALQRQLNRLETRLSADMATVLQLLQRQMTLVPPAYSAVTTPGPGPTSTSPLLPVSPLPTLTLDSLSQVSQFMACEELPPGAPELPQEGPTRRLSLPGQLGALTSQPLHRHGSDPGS
P2X purinoceptor (Oryctolagus cuniculus), sequence (G1U3D6 as listed by the source): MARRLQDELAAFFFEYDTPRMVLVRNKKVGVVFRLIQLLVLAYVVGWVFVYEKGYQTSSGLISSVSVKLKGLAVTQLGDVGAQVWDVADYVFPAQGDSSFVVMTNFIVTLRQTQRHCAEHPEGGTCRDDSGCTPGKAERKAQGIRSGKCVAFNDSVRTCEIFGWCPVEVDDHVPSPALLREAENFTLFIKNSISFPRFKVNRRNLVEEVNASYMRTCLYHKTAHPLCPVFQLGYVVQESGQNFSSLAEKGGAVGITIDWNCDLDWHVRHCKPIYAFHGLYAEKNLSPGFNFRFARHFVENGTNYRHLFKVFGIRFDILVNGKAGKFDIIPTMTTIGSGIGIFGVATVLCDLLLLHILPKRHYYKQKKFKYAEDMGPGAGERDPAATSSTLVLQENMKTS
P2Y purinoceptor 1 (Rattus norvegicus), sequence (P49651 whole entry): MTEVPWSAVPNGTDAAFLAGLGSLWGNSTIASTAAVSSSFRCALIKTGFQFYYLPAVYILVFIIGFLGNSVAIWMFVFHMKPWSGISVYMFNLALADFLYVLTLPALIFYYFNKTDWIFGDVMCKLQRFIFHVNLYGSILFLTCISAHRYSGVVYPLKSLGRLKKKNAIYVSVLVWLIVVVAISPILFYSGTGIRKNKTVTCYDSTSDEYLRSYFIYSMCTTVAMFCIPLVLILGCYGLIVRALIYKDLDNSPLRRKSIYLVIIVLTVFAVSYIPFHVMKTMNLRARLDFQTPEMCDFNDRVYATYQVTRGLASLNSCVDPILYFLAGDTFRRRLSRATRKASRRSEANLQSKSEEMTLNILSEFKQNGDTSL
Beta-1 adrenergic receptor, sequence (P08588 whole entry, looked up): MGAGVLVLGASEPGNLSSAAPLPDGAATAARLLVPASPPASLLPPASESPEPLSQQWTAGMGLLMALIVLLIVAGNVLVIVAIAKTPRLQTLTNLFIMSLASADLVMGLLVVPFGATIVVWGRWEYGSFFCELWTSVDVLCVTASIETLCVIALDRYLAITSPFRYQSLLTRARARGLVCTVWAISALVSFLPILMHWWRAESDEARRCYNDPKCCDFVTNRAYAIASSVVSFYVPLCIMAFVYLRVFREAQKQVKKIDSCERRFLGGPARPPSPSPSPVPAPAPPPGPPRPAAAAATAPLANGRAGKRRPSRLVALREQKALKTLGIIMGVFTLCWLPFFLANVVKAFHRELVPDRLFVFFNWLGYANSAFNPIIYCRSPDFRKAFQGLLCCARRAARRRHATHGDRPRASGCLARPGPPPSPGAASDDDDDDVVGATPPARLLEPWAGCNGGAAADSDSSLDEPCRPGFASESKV
Histamine H1 receptor (Homo sapiens), sequence (P35367 whole entry): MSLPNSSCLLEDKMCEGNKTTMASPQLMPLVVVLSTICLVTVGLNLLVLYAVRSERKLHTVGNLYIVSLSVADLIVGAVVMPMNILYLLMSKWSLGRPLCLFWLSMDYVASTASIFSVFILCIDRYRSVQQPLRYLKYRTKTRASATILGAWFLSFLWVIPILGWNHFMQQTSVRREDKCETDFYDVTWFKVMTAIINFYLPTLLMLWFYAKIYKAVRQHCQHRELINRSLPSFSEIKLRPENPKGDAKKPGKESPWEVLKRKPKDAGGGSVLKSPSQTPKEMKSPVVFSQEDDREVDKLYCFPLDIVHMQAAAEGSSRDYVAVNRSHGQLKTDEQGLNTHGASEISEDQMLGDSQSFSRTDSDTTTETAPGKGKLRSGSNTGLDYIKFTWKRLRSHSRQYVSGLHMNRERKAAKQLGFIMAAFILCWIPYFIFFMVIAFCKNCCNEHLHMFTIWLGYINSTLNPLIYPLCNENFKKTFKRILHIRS

As for `CS(=O)(=O)NCC[C@H](NC(=O)c1cncc2c1cnn2-c1ccc(F)cc1)c1ccnc(S(C)(=O)=O)c1` [BI 9307], the residual activity in data set [1] is 71%; in [2] it was 82%; in data set [3], 100%; in data set [4], 100%; in data set [5], 100%; in data set [6], 100%.

For the compound `CS(=O)(=O)c1cc(C2(NC(=O)c3cncc4c3cnn4-c3ccc(F)cc3)CC2)ccn1` [BI 639667], the residual activity in data set [7] was 31%; in [8], 82%; in [9], 95%; in data set [11] it was 72%; in data set [12], 105%; in data set [13] it was 91%. Further, the residual activity in [14] was 97%; in data set [15], 100%; in data set [16] it was 91%; in data set [17], 99%; in data set [18], 94%; in [19], 82%. For the same compound, the residual activity in data set [20] was 86%; in data set [21], 96%; in data set [22] it was 101%; in [23], 88%; in data set [24] it was 105%. Further, the values for the activity at 10 µM (in data set [10]; on hERG (KCNH2)) were 71% (not active) and 104% (not active), respectively.
